# According to ChEMBL document CHEMBL1201862, “PubChem BioAssay data set” (2004):
#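 96-well plates; 48 h exposure; 5 concentrations. Endpoints by linear interpolation between flanking doses. Not reached: highest tested concentration assigned. At the GI50, growth is halved.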 Active and inactive are the calls of the source. Cut-off read from the data, not from the text of the source: active = GI50 up to about 1.1 µM and inactive = higher.
# Legend:
# Test in all cases: NCI anticancer screen, dose series, 48 h
# DLD-1 = system: DLD-1
# UACC-257 = system: UACC-257
# OVCAR-5 = system: OVCAR-5
# HCT-15 = system: HCT-15
# OVCAR-3 = system: OVCAR-3
# HOP-18 = system: HOP-18
# A549 = system: A549
# TK-10 = system: TK-10
# SF-539 = system: SF-539
# NCI-H23 = system: NCI-H23
# NCI-H460 = system: NCI-H460
# SNB-75 = system: SNB-75
# SK-MEL-5 = system: SK-MEL-5
# SNB-19 = system: SNB-19
# LOX IMVI = system: LOX IMVI
# EKVX = system: EKVX
# SR = system: SR
# HOP-92 = system: HOP-92
# CAKI-1 = system: CAKI-1
# SNB-78 = system: SNB-78
# HCT-116 = system: HCT-116
# IGROV-1 = system: IGROV-1
# SN12C = system: SN12C
# A498 = system: A498
# SK-MEL-2 = system: SK-MEL-2
# SK-MEL-28 = system: SK-MEL-28
# SW-620 = system: SW-620
# HT-29 = system: HT-29
# CCRF-CEM = system: CCRF-CEM
# KM12 = system: KM12
# ACHN = system: ACHN
# SF-295 = system: SF-295
# SF-268 = system: SF-268
# HL-60 = system: HL-60
# HOP-62 = system: HOP-62
# M19-MEL = system: M19-MEL
# DMS-273 = system: DMS-273
# RXF 393 = system: RXF 393
# XF498 = system: XF498
# OVCAR-4 = system: OVCAR-4
# RPMI-8226 = system: RPMI-8226
# UACC-62 = system: UACC-62
# COLO 205 = system: COLO 205
# U-251 = system: U-251
# K562 = system: K562
# Malme-3M = system: Malme-3M
# 786-0 = system: 786-0
# OVCAR-8 = system: OVCAR-8
# KM-20L2 = system: KM-20L2
# PC-3 = system: PC-3
# M14 = system: M14
# MCF7 = system: MCF7
# MDA-MB-231 = system: MDA-MB-231
# HCC 2998 = system: HCC 2998
# NCI/ADR-RES = system: NCI/ADR-RES
# DMS-114 = system: DMS-114
# SK-OV-3 = system: SK-OV-3
# MDA-N = system: MDA-N
# NCI-H226 = system: NCI-H226
# T47D = system: T47D
# NCI-H522 = system: NCI-H522
# DU-145 = system: DU-145
# BT-549 = system: BT-549
# Hs-578T = system: Hs-578T
# MOLT-4 = system: MOLT-4
# MDA-MB-435 = system: MDA-MB-435
# UO-31 = system: UO-31
smiles,measurement,setting,value
COc1ccc(C(=O)Nc2ccccc2C#N)cc1,GI50,DLD-1,> 100 µM (inactive)
same,GI50,UACC-257,> 100 µM (inactive)
same,GI50,OVCAR-5,> 100 µM (inactive)
same,GI50,HCT-15,> 100 µM
same,GI50,OVCAR-3,> 100 µM (inactive)
same,GI50,HOP-18,> 100 µM (inactive)
same,GI50,A549,> 100 µM (inactive)
same,GI50,TK-10,> 100 µM (inactive)
same,GI50,SF-539,> 100 µM (inactive)
same,GI50,NCI-H23,> 100 µM (inactive)
same,GI50,NCI-H460,> 100 µM (inactive)
same,GI50,SNB-75,51.1 µM (inactive)
same,GI50,SK-MEL-5,> 100 µM (inactive)
same,GI50,SNB-19,> 100 µM (inactive)
same,GI50,LOX IMVI,> 100 µM (inactive)
same,GI50,EKVX,> 100 µM (inactive)
same,GI50,SR,> 100 µM (inactive)
same,GI50,HOP-92,> 100 µM (inactive)
same,GI50,CAKI-1,> 100 µM (inactive)
same,GI50,SNB-78,> 100 µM (inactive)
same,GI50,HCT-116,> 100 µM (inactive)
same,GI50,IGROV-1,> 100 µM (inactive)
same,GI50,SN12C,> 100 µM (inactive)
same,GI50,A498,> 100 µM (inactive)
same,GI50,SK-MEL-2,> 100 µM (inactive)
same,GI50,SK-MEL-28,> 100 µM (inactive)
same,GI50,SW-620,> 100 µM (inactive)
same,GI50,HT-29,> 100 µM (inactive)
same,GI50,CCRF-CEM,> 100 µM (inactive)
same,GI50,KM12,> 100 µM (inactive)
same,GI50,ACHN,> 100 µM (inactive)
same,GI50,SF-295,> 100 µM (inactive)
same,GI50,SF-268,> 100 µM (inactive)
same,GI50,HL-60,54.6 µM (inactive)
same,GI50,HOP-62,> 100 µM (inactive)
same,GI50,M19-MEL,> 100 µM (inactive)
same,GI50,DMS-273,> 100 µM (inactive)
same,GI50,RXF 393,> 100 µM (inactive)
same,GI50,XF498,> 100 µM (inactive)
same,GI50,OVCAR-4,> 100 µM (inactive)
same,GI50,RPMI-8226,> 100 µM (inactive)
same,GI50,UACC-62,> 100 µM (inactive)
same,GI50,COLO 205,> 100 µM (inactive)
same,GI50,U-251,> 100 µM (inactive)
same,GI50,K562,> 100 µM (inactive)
same,GI50,Malme-3M,> 100 µM (inactive)
same,GI50,786-0,> 100 µM (inactive)
same,GI50,OVCAR-8,> 100 µM (inactive)
same,GI50,KM-20L2,> 100 µM (inactive)
ClCCCN1CCN(CCCl)CC1,GI50,DLD-1,167 µM (inactive)
same,GI50,PC-3,383 µM (inactive)
same,GI50,M14,137 µM (inactive)
same,GI50,MCF7,65.5 µM (inactive)
same,GI50,MDA-MB-231,324 µM (inactive)
same,GI50,UACC-257,284 µM (inactive)
same,GI50,HCC 2998,346 µM (inactive)
same,GI50,NCI/ADR-RES,127 µM (inactive)
same,GI50,DMS-114,28.9 µM (inactive)
same,GI50,OVCAR-5,250 µM (inactive)
same,GI50,HCT-15,189 µM
same,GI50,OVCAR-3,167 µM (inactive)
same,GI50,HOP-18,> 553 µM (inactive)
same,GI50,A549,110 µM (inactive)
same,GI50,TK-10,357 µM (inactive)
same,GI50,SF-539,35.6 µM (inactive)
same,GI50,NCI-H23,69.8 µM (inactive)
same,GI50,NCI-H460,6.24 µM (inactive)
same,GI50,SNB-75,119 µM (inactive)
same,GI50,SK-MEL-5,239 µM (inactive)
same,GI50,SK-OV-3,56.2 µM (inactive)
same,GI50,SNB-19,182 µM (inactive)
same,GI50,LOX IMVI,59.8 µM (inactive)
same,GI50,EKVX,352 µM (inactive)
same,GI50,MDA-N,191 µM (inactive)
same,GI50,SR,7.98 µM (inactive)
same,GI50,HOP-92,105 µM (inactive)
same,GI50,CAKI-1,15.2 µM (inactive)
same,GI50,SNB-78,135 µM (inactive)
same,GI50,NCI-H226,215 µM (inactive)
same,GI50,HCT-116,195 µM (inactive)
same,GI50,T47D,95.5 µM (inactive)
same,GI50,NCI-H522,121 µM (inactive)
same,GI50,DU-145,57.3 µM (inactive)
same,GI50,IGROV-1,120 µM (inactive)
same,GI50,SN12C,34.4 µM (inactive)
same,GI50,A498,261 µM (inactive)
same,GI50,SK-MEL-2,238 µM (inactive)
same,GI50,SK-MEL-28,491 µM (inactive)
same,GI50,SW-620,252 µM (inactive)
same,GI50,HT-29,242 µM (inactive)
same,GI50,CCRF-CEM,7.62 µM (inactive)
same,GI50,KM12,552 µM (inactive)
same,GI50,ACHN,11.1 µM (inactive)
same,GI50,SF-295,34.3 µM (inactive)
same,GI50,SF-268,57.3 µM (inactive)
same,GI50,HL-60,4.51 µM (inactive)
same,GI50,HOP-62,24.1 µM (inactive)
same,GI50,M19-MEL,226 µM (inactive)
same,GI50,DMS-273,28.9 µM (inactive)
same,GI50,RXF 393,166 µM (inactive)
same,GI50,XF498,46.3 µM (inactive)
same,GI50,OVCAR-4,186 µM (inactive)
same,GI50,RPMI-8226,205 µM (inactive)
same,GI50,UACC-62,10.5 µM (inactive)
same,GI50,COLO 205,161 µM (inactive)
same,GI50,BT-549,124 µM (inactive)
same,GI50,Hs-578T,305 µM (inactive)
same,GI50,MOLT-4,5.24 µM (inactive)
same,GI50,U-251,118 µM (inactive)
same,GI50,K562,212 µM (inactive)
same,GI50,MDA-MB-435,282 µM (inactive)
same,GI50,Malme-3M,142 µM (inactive)
same,GI50,786-0,49.7 µM (inactive)
same,GI50,UO-31,109 µM (inactive)
same,GI50,OVCAR-8,120 µM (inactive)
same,GI50,KM-20L2,269 µM (inactive)
